Test results from paper PMC12040169 (PLOS Biology, 2025).

Assay: in vitro
Conditions: human, hela cells, % viability

Row | Structure (SMILES) | viability at 28.5 h, 10 µM | viability at 28.5 h, 10 µM (bulk resorufin, single well)
1 | O=C(O)CNS(=O)(=O)c1c(F)c(F)c(F)c(F)c1F [CBK269986] | 84.6% | 
2 | CCCS(=O)(=O)NC1CC(C)(C)Cc2c1cnn2-c1ccc(C)cc1 (centres unmarked) [CBK307531] | 86.5% | 
3 | CCN1CCC[C@@H]1CNC(=O)c1ccncc1 [CBK174659] | 113% | 
4 | Cc1cc(C)n2nc(SCc3nc4sc(C(=O)O)c(C)c4c(=O)[nH]3)nc2n1 [CBK297482] | 88.1% | 
5 | Cc1cccc(NC(=O)CN2C(=O)S/C(=C\c3cc(C)n(-c4cc(C)ccn4)c3C)C2=O)c1 [CBK264671] | 93.4% | 
6 | c1nc(Sc2nccs2)cc(N2CCCC2)n1 [CBK093748] | 100% | 
7 | COc1ccc(S(=O)(=O)N2CCN(Cc3ccc4c(c3)OCO4)CC2)c(Cl)c1Cl [CBK074433] | 102% | 
8 | OCc1ccccc1-c1cncc(Nc2cccc(Cl)c2)n1 [CBK065400] | 102% | 
9 | Cc1cc(F)c(S(=O)(=O)N2CCN(C)CC2)cc1NC(=O)c1cc2ccccc2o1 [CBK034419C] | 94% | 
10 | CCCCCC1CC(CC(=O)NC(=S)Nc2ccccc2Cl)C(=O)O1 (centres unmarked) [CBK019495] | 86.8% | 
11 | CCOC(=O)CC(=O)Nc1c(Br)cc(Br)cc1C(=O)O [CBK261412] | 95.2% | 
12 | CC(C)C(=O)Nc1sc2c(c1C(=O)NCc1cccnc1)CCC2 [CBK306144] | 80.3% | 
13 | Cc1ccc(OC(C)C(=O)Nc2ccc(S(=O)(=O)Nc3cc(C)on3)cc2)cc1 (centres unmarked) [CBK268757] | 89.6% | 
14 | Nc1nnc(Sc2nc3cc(Cl)c(Cl)cc3nc2N2CCCC2)s1 [CBK115267] | 98.9% | 
15 | Cn1nccc1C1CCN(Cc2ccc(Oc3cnccn3)cc2)CC1 [CBK306400] | 104% | 
16 | COc1ccc([N+](=O)[O-])cc1NC(=O)c1cc(-c2cccnc2)nc2ccc(C)cc12 [CBK267757] | 86.8% | 
17 | CC(=O)Nc1ccc(Oc2cc(C)nc(C3CCNCC3)c2)cc1 [CBK283468] | 86.5% | 
18 | CCc1nccn1CCC(=O)NC1CCN(c2ccc(F)cc2)CC1 [CBK306760] | 90.1% | 
19 | O=C(O)CN1C(=O)/C(=C/C2=Cc3ccccc3OC2)SC1=S [CBK264787] | 103% | 
20 | Cc1cc(C)nc(NCCC(=O)O)n1 [CBK270154] | 89.1% | 
21 | CN1CCN(NC(=O)COc2ccc(-c3ccccc3)cc2)CC1 [CBK268117] | 89.8% | 
22 | O=C(NCc1ccccc1OC1CCNC1)C1CCCO1 (centres unmarked) [CBK024503T] | 96.9% | 

Row | Structure (SMILES) | viability at 28.5 h, 10 µM | viability at 28.5 h, 10 µM (bulk resorufin, single well)
23 | COc1ccc([C@]23CN(C)C[C@H]2CCN(C(=O)c2ccc4c(c2)OC(F)(F)O4)C3)cc1OC [CBK075110T] | 94.8% | 
24 | Cc1cccc(-n2c(C#N)c(O)c3ccccc32)c1C [CBK115319] | 106% | 
25 | CN(CC1(C)COC1)C(=O)CCc1nc2ccccc2[nH]1 [CBK281719] | 88.8% | 
26 | COc1ccccc1C1NC(=O)COC12CCN(Cc1ccccc1)CC2 (centres unmarked) [CBK092265] | 109% | 
27 | COc1cc(CNC2CCCc3c2cnn3C)c(O)c(C(C)(C)C)c1 (centres unmarked) [CBK304716] | 84.4% | 
28 | CC(C)CNC(=O)c1cc([C@H]2CC[C@H](CNC(=O)Cn3cccn3)CC2)nc2ccccc12 [CBK285860] | 102% | 
29 | CCC(=O)N1CCC(c2nc(C3CCCC3)no2)C1 (centres unmarked) [CBK285458] | 95.3% | 
30 | CCC(=O)N1CCc2cc(C(O)CN3CCCCC3C)ccc21 (centres unmarked) [CBK283112] | 105% | 
31 | O=C1c2cccc3cccc(c23)C(=O)N1CCN1CCN(S(=O)(=O)c2ccccc2[N+](=O)[O-])CC1 [CBK262530] | 97.7% | 
32 | CCCc1cc(C(=O)N2CCNCC2C(=O)N2CCN(C)CC2)ccn1 (centres unmarked) [CBK307619] | 97.5% | 
33 | c1ccc2c(c1)OCC(COc1ccnc(N3CCCN(CCN4CCOCC4)CC3)n1)O2 (centres unmarked) [CBK083976] | 116% | 
34 | CS(=O)(=O)c1ccc(-n2ncc(-c3cccc(C(F)(F)F)c3)n2)cc1 [CBK112672] | 95.6% | 
35 | CCN1CC2(CCN(CC(N)=O)CC2)c2ccccc21 [CBK131485] | 107% | 
36 | Cc1cc(CSc2ccccc2)ccc1NC(=O)/C=C/c1cccc([N+](=O)[O-])c1 [CBK264687] | 111% | 
37 | CC(=O)Oc1c(C)cc(CN(C)C(C)c2ccncc2)cc1C (centres unmarked) [CBK306915] | 73.2% | 
38 | O=C(O)COc1ccccc1/C=C1\C(=O)NC(=O)N(c2ccc(OCc3ccccc3)cc2)C1=O [CBK265419] |  | 114%
39 | OCc1ccccc1-c1cc(N2CCN(Cc3cccnc3)CC2)n2nccc2n1 [CBK037105] | 98.9% | 
40 | CC(C)(C)OC(=O)NCc1ccc(CNCc2ccccc2C(F)(F)F)cc1 [CBK056703] | 92.2% | 
41 | CC(SC1CCc2ccccc2NC1=O)C(=O)O (centres unmarked) [CBK286652] | 87.1% | 
42 | COc1cc(/C(CS(C)(=O)=O)=N\O)cc(OC)c1OC [CBK022984] | 83.8% | 
43 | CCN(CC)C(=O)C1CCCN(C(=O)NCc2ccc(C#N)cc2)C1 (centres unmarked) [CBK156132] | 102% | 
44 | CSc1nc2ncnc(N3CCC(O)CC3)c2s1 [CBK022082] | 84.4% | 
